Measurements: patent publication US6287840A (Axys Pharmaceuticals, Inc., priority 1999, dated 2001)
Peptide text beside a SMILES is read from it. * marks the point of attachment. X1 = CS(=O)(=O)C=CC(CC(=O)O)N*

Legend:
Cloned cathepsin S = biological target: T1, Cloned cathepsin S (Homo sapiens, UniProt P25774); experiment: Inhibition of cathepsin S, Z-Val-Val-Arg-AMC fluorescence progress curves; type: biochemical; conditions: for kobs /[I]* (approximate second-order inactivation constant) / kinact/KI: values marked *; for kinact/KI: read-out: kobs /[I]* (approximate second-order inactivation constant)
T1 construct: made in house
T1 sequence (P25774 115-331): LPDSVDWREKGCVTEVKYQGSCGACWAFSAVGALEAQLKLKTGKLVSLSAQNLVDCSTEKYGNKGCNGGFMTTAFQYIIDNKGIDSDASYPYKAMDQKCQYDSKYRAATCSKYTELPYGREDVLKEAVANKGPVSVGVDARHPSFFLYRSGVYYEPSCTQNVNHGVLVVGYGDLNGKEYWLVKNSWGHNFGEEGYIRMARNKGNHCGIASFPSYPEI
Experimental: Stock solutions of the various inhibitors (10 mM) were made in DMF; dilutions were made in the same solvent. Cloned cathepsin S, (see Bromme et al., J. Biol. Chem. 268(&): 4832-4838 (1993)) was less than 1 nM in the assay. The assay buffer contained 100 mM phosphate at pH 6.5, 0.01% Triton, 2.5 mM dithiothreitol (DTT), and 2.5 mM ethylenediaminetetraacetic acid (EDTA). The substrate for cathepsin S was 10 μM Z-Val-Val-Arg-AMC (carbobenzyloxyvalinylvalinylarginylaminomethylcoumarin). The assays were initiated at 25° C. by addition of enzyme to 2 mL of assay buffer containing the substrate and the various inhibitors (30-0.001 μM). The increase in fluorescence at 460 nm with excitation at 380 nm was followed with time. Inactivation of cathepsin S was indicated by a downward curve in the increase in fluorescence with time. In the absence of inhibitors, the enzymatic production of free AMC was linear throughout the time course of inactivation examined. Data points were collected over at least 3 half-times of inactivation. The inhibition progress curves were analyzed using non-linear curve fitting software to compute the kobs values. Approximate second-order inactivation constants (kobs /[I]) were calculated for all compounds. For selected inhibitors, plots of 1/[I] vs. 1/kobs yielded the true constants kirr, KI, and kirr /KI, and were corrected for the presence of substrate by dividing KI (app.) by {1+[S]/Km}.

[1] = biological target: T2, Cathepsin B from human placenta (Homo sapiens, UniProt P07858); experiment: Inhibition of cathepsin B, Z-Arg-Arg-AMC fluorescence progress curves; type: biochemical; conditions: for k/KI (kirr/KI): values without asterisk; for k/KI (kirr/KI) / kobs /[I]* (approximate second-order inactivation constant): 25° C., pH 6.2; for kobs /[I]* (approximate second-order inactivation constant): values marked *
T2 construct: Cathepsin B from human placenta, obtained from Sigma; purchased Sigma; host or cells: human placenta (tissue)
Experimental: Stock solutions of the various inhibitors (10 mM) were made in DMF; dilutions were made in the same solvent. Cathepsin B from human placenta, obtained from Sigma, was approximately 10 nM in the assay. The assay buffer contained 50 mM phosphate at pH 6.2, 2.5 mM dithiothreitol (DTT), and 2.5 mM ethylenediaminetetraacetic acid (EDTA). The substrate for cathepsin B was 50 μM Z-Arg-Arg-AMC (carbobenzyloxyarginylarginylaminomethylcoumarin). The assays were initiated at 25° C. by addition of enzyme to 2 mL of assay buffer containing the substrate and the various inhibitors (30-0.001 (μM). The increase in fluorescence at 460 nm with excitation at 380 nm was followed with time, and the assay was linear throughout the range observed. Inactivation of cathepsin B was indicated by a downward curve in the increase in fluorescence with time. In the absence of inhibitors, the enzymatic production of free AMC was linear throughout the time course of inactivation examined. Data points were collected over at least 3 half-times of inactivation, and in duplicate. The inhibition progress curves were analyzed using non-linear curve fitting software to compute the kobs values. Approximate second-order inactivation constants (kobs /[I]) were calculated for all compounds. For selected inhibitors, plots of 1/[I] vs. 1/kobs yielded the true constants kirr, KI, and kirr /KI, and were corrected for the presence of substrate by dividing KI (app.) by {1+[S]/Km }.

[2] = test system: Leishmania donovani amastigote infected mouse peritoneal macrophages; experiment: In vitro antiprotozoal activity, Leishmania donovani; type: cell-based; set-up: key to percentage inhibition, L. donovani: the term "T" indicates the molecule to have displayed cytotoxicity
Experimental: (§1) In this table, the in vitro antiprotozoal activities of the indicated compounds were measured as percentage inhibition of Leishmania donovani amastigote infecteda mouse peritoneal macrophages, Trypanosoma cruzi amastigote infected macrophages, and Trypanosoma brucei extracellular bloodstream forms.

[3] = test system: Trypanosoma brucei extracellular bloodstream forms; experiment: In vitro antiprotozoal activity, Trypanosoma brucei; type: cell-based
Experimental: as §1

[4] = test system: Trypanosoma cruzi amastigote infected macrophages; experiment: In vitro antiprotozoal activity, Trypanosoma cruzi; type: cell-based
Experimental: as §1

cruzain, from T. cruzi = cruzain, from T. cruzi (Trypanosoma cruzi, UniProt P25779); experiment: Inhibition of cruzain, as for cathepsin L; type: biochemical; conditions: for kobs /[I]* (approximate second-order inactivation constant): values marked *
Sequence of cruzain, from T. cruzi (P25779 123-337 limits assumed): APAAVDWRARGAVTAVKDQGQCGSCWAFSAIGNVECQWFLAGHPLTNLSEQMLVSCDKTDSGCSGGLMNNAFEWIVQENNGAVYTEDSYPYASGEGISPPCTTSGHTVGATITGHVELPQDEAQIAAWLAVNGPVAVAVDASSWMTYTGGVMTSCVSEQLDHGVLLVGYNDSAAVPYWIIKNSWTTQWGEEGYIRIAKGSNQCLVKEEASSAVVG
Experimental: (§2) Stock solutions of the various inhibitors (10 mM) were made in DMF; dilutions were made in the same solvent. Cathepsin L from rat liver, (see Mason et al., Biochem. J. 226:233-241 (1985)) was approximately 1 nM in the assay. The assay buffer contained 50 mM phosphate at pH 6:2, 2.5 mM dithiothreitol (DTT), and 2.5 mM ethylenediaminetetraacetic acid (EDTA). The substrate for cathepsin L was 5 μM Z-Phe-Arg-AMC (carbobenzyloxyphenylalanylarginylaminomethylcoumarin). The assays were initiated at 25° C. by addition of enzyme to 2 mL of assay buffer containing the substrate and the various inhibitors (30-0.001 μM). The increase in fluorescence at 460 nm with excitation at 380 nm was followed with time. Inactivation of cathepsin L was indicated by a downward curve in the increase in fluorescence with time. In the absence of inhibitors, the enzymatic production of free AMC was linear throughout the time course of inactivation examined. Data points were collected over at least 3 half-times of inactivation. The inhibition progress curves were analyzed using non-linear curve fitting software to compute the kobs values. Approximate second-order inactivation constants (kobs /[I]) were calculated for all compounds. For selected inhibitors, plots of 1/[I] vs. 1/kobs yielded the true constants kirr, KI, and kirr/KI and were corrected for the presence of substrate by dividing KI (app.) by (1+[S]/Km).
Inhibition of cruzain, from T. cruzi, (see Eakin et at., J. Biol. Chem. 268(9): 6115-6118 (1993)) proceeded exactly as for cathepsin L, outlined above, using an enzyme concentration of 1 nM.

[5] = biological target: T3, Cathepsin L from rat liver (Rattus norvegicus, UniProt P07154); experiment: Inhibition of cathepsin L, Z-Phe-Arg-AMC fluorescence progress curves; type: biochemical; conditions: for kobs /[I]* (approximate second-order inactivation constant): values marked *; for kobs /[I]* (approximate second-order inactivation constant) / k/KI (kirr/KI): 25° C., pH 6.2; for Ki: corrected for substrate; for k/KI (kirr/KI): values without asterisk
T3 construct: Cathepsin L from rat liver; from tissue; host or cells: rat liver
T3 sequence (P07154 114-288 limits assumed): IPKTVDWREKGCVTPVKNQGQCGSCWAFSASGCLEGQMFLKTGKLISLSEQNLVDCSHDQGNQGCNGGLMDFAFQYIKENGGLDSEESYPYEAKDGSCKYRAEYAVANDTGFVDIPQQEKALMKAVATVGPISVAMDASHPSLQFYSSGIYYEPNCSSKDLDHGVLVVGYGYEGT
T3 sequence (P07154 291-334 limits assumed): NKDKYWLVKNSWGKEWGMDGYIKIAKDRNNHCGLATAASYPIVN
Experimental: as §2

In the case of `CC(C)C[C@H](NC(=O)OCc1ccccc1)C(=O)N[C@H](/C=C/S(=O)(=O)c1ccccc1)Cc1ccccc1`, the “kobs /[I]* (approximate second-order inactivation constant)” value (shortened to “kobs /[I]*”) (Cloned cathepsin S; 25° C., pH 6.5) is reported as 3,000,000 M^-1 sec^-1.
`CC(=O)N[C@@H](CC(C)C)C(=O)N[C@@H](CC(C)C)C(=O)N[C@H](/C=C/S(=O)(=O)c1ccccc1)Cc1ccc(O)cc1` [Ac-Leu-Leu-TyrVSPh, (S)-(E)-3-(acetylleucylleucyl)amino-4-(4-hydroxyphenyl)-1-phenylsulfonyl-1-butene] showed a kinact/KI (Cloned cathepsin S; 25° C., pH 6.5) of 100000 M⁻¹ s⁻¹.
For `CC(=O)NC(Cc1ccc(O)cc1)C(=O)NC(Cc1ccc(O)cc1)C(=O)NC(C(=O)NC(C)C(=O)NC(C=CS(C)(=O)=O)CC(=O)O)C(C)C` (stereo not drawn) [Ac-Tyr-Tyr-Val-Ala-AspVSMe] (Ac-YYVA-X1; configuration not given here), the “k/KI (kirr/KI)” value [1] was 0 M⁻¹ s⁻¹.
In the case of `CN(C)S(=O)(=O)N[C@@H](Cc1ccccc1)C(=O)N[C@H](/C=C/S(=O)(=O)c1ccccc1)CCc1ccccc1` [DimSam-Phe-HphVSPh, (S)-(E)-3-(dimethylsulfamoylphenylalanyl)amino-5-phenyl-1-phenylsulfonyl-1-pentene], the kinact/KI (Cloned cathepsin S; 25° C., pH 6.5) is reported as 920000 M⁻¹ s⁻¹.
`Cl.NC(C=CS(=O)(=O)c1ccccc1)CCCCNC(=O)OCc1ccccc1` (stereo not drawn) [HCl.(e-Z)LysVSPh] was tested, and the “percentage inhibition, L. donovani” value ([2]; 3 uM) was 100%, the “percentage inhibition, L. donovani” value ([2]; 10 uM) was 100% and the “percentage inhibition, L. donovani” value ([2]; 30 uM) was “T”. The “percentage inhibition, L. donovani” value ([2]; 90 uM) was “T”, the “ED50, T. brucei” value [3] was 8 µM and the “percentage inhibition, T. brucei” value ([3]; 1 uM) was 7.6%. For the same molecule, the “percentage inhibition, T. brucei” value ([3]; 3 uM) was 13%, the “percentage inhibition, T. brucei” value ([3]; 10 uM) was 39.3% and the “percentage inhibition, T. brucei” value ([3]; 30 uM) was 100%. The “percentage inhibition, T. brucei” value ([3]; 90 uM) was 100%, the “ED50, T. cruzi” value [4] was 18.34 µM and the “percentage inhibition, T. cruzi” value ([4]; 3 uM) was 2.7%. The “percentage inhibition, T. cruzi” value ([4]; 10 uM) was 10.6%, the “percentage inhibition, T. cruzi” value ([4]; 30 uM) was 82.8% and the “percentage inhibition, T. cruzi” value ([4]; 90 uM) was 97.8%.
In the case of `Cl.NC(Cc1ccccc1)C(=O)NC(C=CS(=O)(=O)c1ccccc1)CCc1ccccc1` (stereo not drawn) [HCl.Phe-HphVSPh], the “kobs /[I]*” value (Cloned cathepsin S; 25° C., pH 6.5) is reported as 35,000 M^-1 sec^-1 and the “kobs /[I]*” value (cruzain, from T. cruzi) is reported as 14,600 M^-1 sec^-1.
For `CS(=O)(=O)/C=C/[C@@H](N)Cc1ccccc1.Cl` [HCl.PheVSMe], the “percentage inhibition, L. donovani” value ([2]; 3 uM) was 100%, the “percentage inhibition, L. donovani” value ([2]; 10 uM) was 100% and the “percentage inhibition, L. donovani” value ([2]; 30 uM) was 100%. For the same molecule, the “percentage inhibition, L. donovani” value ([2]; 90 uM) was 100%, the “percentage inhibition, T. brucei” value ([3]; 3 uM) was 0% and the “percentage inhibition, T. brucei” value ([3]; 10 uM) was 0%. The “percentage inhibition, T. brucei” value ([3]; 30 uM) was 0%, the “percentage inhibition, T. brucei” value ([3]; 90 uM) was 0% and the “percentage inhibition, T. cruzi” value ([4]; 3 uM) was 0%. The “percentage inhibition, T. cruzi” value ([4]; 10 uM) was 0%, the “percentage inhibition, T. cruzi” value ([4]; 30 uM) was 0% and the “percentage inhibition, T. cruzi” value ([4]; 90 uM) was 17.3%.
`O=C(N[C@@H](/C=C/S(=O)(=O)c1ccccc1)CCc1ccccc1)C(Cc1ccccc1)NC(=O)N1CCOCC1` (stereo partly drawn) [Mu-Phe-D-HphVSPh, (R)-(E)-3-(4-morpholinecarbonylphenylalanyl)amino-5-phenyl-1-phenylsulfonyl-1-pentene] was tested, and the “kobs /[I]*” value (Cloned cathepsin S; 25° C., pH 6.5) was 68,500 M^-1 sec^-1 and the “kobs /[I]*” value [5] was 4,500 M^-1 sec^-1.
In the case of `O=C(/C=C/[C@H](CCc1ccccc1)NC(=O)C(Cc1ccccc1)NC(=O)N1CCOCC1)NC(Cc1ccccc1)C(=O)O` (stereo partly drawn) [Mu-Phe-HphVAM-PheOH, (S)-(E)-(N-phenylalanine)-4-(4-morpholinecarbonylphenylalanyl)amino-6-phenyl-2-hexenamide], the “kobs /[I]*” value (Cloned cathepsin S; 25° C., pH 6.5) is reported as 10,600 M^-1 sec^-1 and the “kobs /[I]*” value [1] is reported as 600 M⁻¹ s⁻¹.
`O=C(NCCCC[C@@H](/C=C/S(=O)(=O)c1ccccc1)NC(=O)[C@H](Cc1ccccc1)NC(=O)N1CCOCC1)c1ccccc1` [Mu-Phe-Lys(Bz)VSPh, (S)-(E)-3-(4-morpholinecarbonylphenylalanyl)amino-7-benzoylamino-1-phenylsulfonyl-1-heptene] was tested, and the “kobs /[I]*” value (Cloned cathepsin S; 25° C., pH 6.5) was 2,500,000 M^-1 sec^-1, the “kobs /[I]*” value (cruzain, from T. cruzi) was 60,000 M^-1 sec^-1 and the “kobs /[I]*” value [5] was 210,000 M^-1 sec^-1.
`O=C(NCCCC[C@@H](C=C(F)S(=O)(=O)c1ccccc1)NC(=O)[C@H](Cc1ccccc1)NC(=O)N1CCOCC1)OCc1ccccc1` [Mu-Phe-Lys(Z)fVSPh, (S)-7-(benzyloxycarbonyl)amino-3-(4-morpholinecarbonylphenylalanyl)amino-1-fluoro-1-phenylsulfonyl-1-heptene] was tested, and the “kobs /[I]*” value (Cloned cathepsin S; 25° C., pH 6.5) was 10,700 M^-1 sec^-1 and the “kobs /[I]*” value [1] was 2,000 M^-1 sec^-1.
In the case of `Br.CCOC(=O)/C=C/[C@H](CCCCN)NC(=O)[C@H](Cc1ccccc1)NC(=O)N1CCOCC1` [Mu-Phe-LysVEOEt.HBr, (S)-(E)-Ethyl 8-amino-4-(4-morpholinecarbonylphenylalanyl)amino-2octenoate hydrobromide], the kirr [5] is reported as 0.085 s⁻¹, the Ki [5] is reported as 24.2 µM and the “k/KI (kirr/KI)” value [5] is reported as 3500 M⁻¹ s⁻¹. The “kobs /[I]*” value [1] was 650 M⁻¹ s⁻¹.
With “(S)-(E)-3-(4-morpholinecarbonyl-2-naphthylalanyl)amino-5-phenyl-1-phenylsulfonyl-1-pentene [Mu-Np-HphVSPh]” the “k/KI (kirr/KI)” value (cruzain, from T. cruzi; values without asterisk) was 218,000 M^-1 sec^-1, the “kobs /[I]*” value [5] was 1,000,000 M^-1 sec^-1 and the “kobs /[I]*” value [1] was 86,000 M^-1 sec^-1.
In the case of “(S)-(E)-3-(4-morpholinecarbonylphenylalanyl)amino-1-(4-bromophenylsulfonyl)-5-phenyl-1-pentene [Mu-Phe-HphVSPhBr]”, the “kobs /[I]*” value [1] is reported as 15,500 M^-1 sec^-1.
In the case of “(S)-(E)-Ethyl8-(benzyloxycarbonyl)amino-4-(4-morpholinecarbonylphenylalanyl)amino-2-octenoate [Mu-Phe-Lys(Z)VEOEt]”, the kirr (Cloned cathepsin S) is reported as 0.13 s⁻¹, the Ki (Cloned cathepsin S; corrected for substrate) is reported as 1.3 µM and the “k/KI (kirr/KI)” value (Cloned cathepsin S; values without asterisk, 25° C., pH 6.5) is reported as 100,000 M^-1 sec^-1. For the same molecule, the kirr [5] was 0.87 s⁻¹, the Ki [5] was 6.2 µM and the “k/KI (kirr/KI)” value [5] was 13,900 M^-1 sec^-1. For the same molecule, the kirr [1] was 0.13 s⁻¹, the Ki ([1]; corrected for substrate) was 32 µM and the “k/KI (kirr/KI)” value [1] was 4100 M⁻¹ s⁻¹.
In the case of “Boc-phenylalanyl-homophenylalanyl-p-nitrostyryl”, the “kobs /[I]*” value (Cloned cathepsin S; 25° C., pH 6.5) is reported as 40,100 M^-1 sec^-1.
